In ChEMBL document CHEMBL6109080, “Synthesis and mechanistic insights of Coumarinyl-Indolinone hybrids as potent inhibitors of Leishmania major” (Eur J Med Chem, 2025):

Key:
Leishmania major [1] = experiment: Antileishmanial activity against Leishmania major promastigotes assessed as parasite survival preincubated with 100 uM folic acid for 1 hrs followed by compound addition and measured after 48 hrs by hemocytometric analysis relative to control; format: functional
Leishmania major [2] = experiment: Antileishmanial activity against Leishmania major promastigotes assessed as parasite survival at 100 uM measured after 72 hrs by hemocytometric analysis relative to control
Leishmania major [3] = experiment: Antileishmanial activity against […] promastigote form of Leishmania major assessed as inhibition of parasite growth by alamar-blue reduction assay; format: functional, organism-based
Leishmania major [4] = experiment: Antileishmanial activity against intracellular amastigotes form of Leishmania major assessed as inhibition of parasite growth by alamar-blue reduction assay; format: functional, organism-based
Leishmania infantum = experiment: Antileishmanial activity against Leishmania infantum MHOM/MA(BE)/67 infected in mouse peritoneal macrophage cell incubated for 5 days by giemsa staining based analysis; format: functional, organism-based; conditions: MHOM/MA(BE)/67, Peritoneal macrophage cell, 120 h
Leishmania major [5] = experiment: Antileishmanial activity against Leishmania major promastigotes assessed as parasite survival measured after 72 hrs by hemocytometric analysis relative to control; format: functional
Leishmania major [6] = experiment: Antileishmanial activity against Leishmania major promastigotes assessed as parasite survival preincubated with 20 uM folic acid for 1 hrs followed by compound addition and measured after 48 hrs by hemocytometric analysis relative to control; format: functional
Leishmania major [7] = experiment: Antileishmanial activity against Leishmania major promastigotes assessed as parasite survival preincubated with 20 uM folinic acid for 1 hrs followed by compound addition and measured after 48 hrs by hemocytometric analysis relative to control; format: functional
Leishmania major [8] = experiment: Antileishmanial activity against Leishmania major promastigotes assessed as parasite survival preincubated with 100 uM folinic acid for 1 hrs followed by compound addition and measured after 48 hrs by hemocytometric analysis relative to control; format: functional
[9] = Cytotoxicity against African green monkey Vero cells assessed as reduction in cell survival incubated for 72 hrs by crystal violet staining based analysis; format: toxicity; conditions: chlorocebus sabaeus
[10] = Selectivity index, ratio of CC50 for cytotoxicity against African green monkey Vero cells assessed as reduction in cell viability to IC50 for antileishmanial activity against Leishmania major amastigotes assessed as inhibition of parasite growth; format: toxicity, cell-based; conditions: read-out: Ratio CC50/IC50
[11] = Hepatotoxicity in male mouse assessed as ALT level at 50 mg/kg, ip measured after 48 hrs (reference value: 28.23 +/- 6.57 U/L); format: toxicity, organism-based; conditions: in vivo
[12] = Hepatotoxicity in male mouse assessed as ALT level at 200 mg/kg, ip measured after 48 hrs (reference value: 28.23 +/- 6.57 U/L); format: toxicity, organism-based; conditions: in vivo
[13] = Hepatotoxicity in male mouse assessed as AST level at 50 mg/kg, ip measured after 48 hrs (reference value: 47.72 +/- 4.77 U/L); format: toxicity, organism-based; conditions: in vivo
[14] = Hepatotoxicity in male mouse assessed as AST level at 200 mg/kg, ip measured after 48 hrs (reference value: 47.72 +/- 4.77 U/L); format: toxicity, organism-based; conditions: in vivo
[15] = Hepatotoxicity in male mouse assessed as ALP level at 50 mg/kg, ip measured after 48 hrs (reference value: 115.44 +/- 8.03 U/L); format: toxicity, organism-based; conditions: in vivo
[16] = Hepatotoxicity in male mouse assessed as effect on ALP level at 200 mg/kg, ip measured after 48 hrs (reference value: 115.44 +/- 8.03 U/L); format: toxicity, organism-based; conditions: in vivo
[17] = Renal toxicity in male mouse assessed as serum urea level at 50 mg/kg, ip measured after 48 hrs (reference value: 36.51 +/- 1.51 mg/dl); format: organism-based; conditions: in vivo
[18] = Renal toxicity in male mouse assessed as serum urea level at 200 mg/kg, ip measured after 48 hrs (reference value: 36.51 +/- 1.51 mg/dl); format: organism-based; conditions: in vivo
[19] = Renal toxicity in male mouse assessed as serum creatinine level at 50 mg/kg, ip measured after 48 hrs (reference value: 0.66 +/- 0.02 mg/dl); format: organism-based; conditions: in vivo
[20] = Renal toxicity in male mouse assessed as serum creatinine level at 200 mg/kg, ip measured after 48 hrs (reference value: 0.66 +/- 0.02 mg/dl); format: organism-based; conditions: in vivo
[21] = Toxicity in male mouse assessed as CK-MB level at 50 mg/kg, ip measured after 48 hrs (reference value: 41.27 +/- […]); format: organism-based; conditions: in vivo
[22] = Toxicity in male mouse assessed as CK-MB level at 200 mg/kg, ip measured after 48 hrs (reference value: 41.27 +/- […]); format: organism-based; conditions: in vivo

Row | SMILES | IC50 (Leishmania major [3]) | IC50 (Leishmania major [4]) | other results
1 | COc1cc(Cc2cnc(N)nc2N)cc(OC)c1OC [TRIMETHOPRIM] |  |  | Survival (Leishmania major [1]): 99%; survival at 100 µM (Leishmania major [2]): 72%
2 | CCCN1C(=O)C(n2nc(-c3c(O)c4ccccc4oc3=O)cc2-c2ccc(Br)cc2)c2cc(Cl)ccc21 (stereo unspecified) | 4.73 µM | 6.82 µM | 
3 | COc1ccc(-c2cc(NC(=O)N3CCC(Cc4ccccc4)CC3)[nH]n2)cc1 |  |  | IC50 (Leishmania infantum): 19 µM
4 | O=C1C(n2nc(-c3c(O)c4ccccc4oc3=O)cc2-c2ccc(Cl)cc2)c2ccccc2N1CCc1ccccc1 (stereo unspecified) | 5.92 µM | 8.47 µM | 
5 | CC(C)CN1C(=O)C(n2nc(-c3c(O)c4ccccc4oc3=O)cc2-c2ccc(Br)cc2)c2cc(Cl)ccc21 (stereo unspecified) | 5.07 µM | 6.64 µM | 
6 | O=C(Nc1cc(-c2ccccc2F)n[nH]1)Oc1ccccc1 |  |  | IC50 (Leishmania infantum): 20 µM
7 | CC(C)CN1C(=O)C(n2nc(-c3c(O)c4ccccc4oc3=O)cc2-c2ccc(F)cc2)c2cc(Br)ccc21 (stereo unspecified) | 6.22 µM | 6.87 µM | 
8 | O=C1Nc2ccc([N+](=O)[O-])cc2C1n1nc(-c2c(O)c3ccccc3oc2=O)cc1-c1ccc(Cl)cc1 (stereo unspecified) | 1.43 µM | 1.44 µM | Survival (Leishmania major [5]): 21%; Survival (Leishmania major [6]): 68%; Survival (Leishmania major [1]): 73%; Survival (Leishmania major [7]): 78%; Survival (Leishmania major [8]): 85%; CC50 at 72 h [9]: 60.7 µM; selectivity ratio [10]: 42.3; Activity [11]: 29.39 U/L; Activity [12]: 32.59 U/L; Activity [13]: 45.98 U/L; Activity [14]: 48.89 U/L; Activity [15]: 106.35 U/L; Activity [16]: 113.63 U/L; Activity [17]: 34.17 mg/dL; Activity [18]: 38.32 mg/dL; Activity [19]: 0.62 mg/dL; Activity [20]: 0.61 mg/dL; Activity [21]: 44.71 U/L; Activity [22]: 44.71 U/L
9 | O=C1Nc2ccc([N+](=O)[O-])cc2C1n1nc(-c2c(O)c3ccccc3oc2=O)cc1-c1ccc(Br)cc1 (stereo unspecified) | 2.47 µM | 3.88 µM | 
10 | CC(C)CN1C(=O)C(n2nc(-c3c(O)c4ccccc4oc3=O)cc2-c2ccc(Br)cc2)c2cc(Br)ccc21 (stereo unspecified) | 6.93 µM | 8.22 µM | 
11 | CCCN1C(=O)C(n2nc(-c3c(O)c4ccccc4oc3=O)cc2-c2ccc(F)cc2)c2cc(Cl)ccc21 (stereo unspecified) | 4.64 µM | 5.82 µM | 
12 | CC(C)CN1C(=O)C(n2nc(-c3c(O)c4ccccc4oc3=O)cc2-c2ccc(Cl)cc2)c2cc(Cl)ccc21 (stereo unspecified) | 6.59 µM | 8.25 µM | 
13 | CC(C)CN1C(=O)C(n2nc(-c3c(O)c4ccccc4oc3=O)cc2-c2ccc(Cl)cc2)c2cc(Br)ccc21 (stereo unspecified) | 5.99 µM | 7.54 µM | 
14 | CC(C)CN1C(=O)C(n2nc(-c3c(O)c4ccccc4oc3=O)cc2-c2ccc(F)cc2)c2cc(Cl)ccc21 (stereo unspecified) | 5.71 µM | 7.28 µM | 
15 | CN1C(=O)C(n2nc(-c3c(O)c4ccccc4oc3=O)cc2-c2ccc(F)cc2)c2cc(Cl)ccc21 (stereo unspecified) | 4.05 µM | 6.82 µM | 
16 | CCCN1C(=O)C(n2nc(-c3c(O)c4ccccc4oc3=O)cc2-c2ccc(Cl)cc2)c2cc(Cl)ccc21 (stereo unspecified) | 5.6 µM | 7.29 µM | 
17 | O=C1C(n2nc(-c3c(O)c4ccccc4oc3=O)cc2-c2ccc(Br)cc2)c2ccccc2N1CCc1ccccc1 (stereo unspecified) | 7.21 µM | 9.44 µM | 
